Data reported in patent US20090099195A1 (ASTRAZENECA AB, priority 2007, published 2009).

What was measured:
[1] = target: T1, hP2X3 (human Purinergic P2X receptors subtype 3), clone A (Homo sapiens, UniProt P56373); test: hP2X3 FLIPR calcium (Fluo-4) antagonist assay, clone A; details: Human P2X3 FLIPR Clone A Mean IC50 (nM), RLE cells expressing hP2X3 clone A (AB016608); agonist 500 nM α,β-methylene-ATP
T1 sequence (P56373 1-397): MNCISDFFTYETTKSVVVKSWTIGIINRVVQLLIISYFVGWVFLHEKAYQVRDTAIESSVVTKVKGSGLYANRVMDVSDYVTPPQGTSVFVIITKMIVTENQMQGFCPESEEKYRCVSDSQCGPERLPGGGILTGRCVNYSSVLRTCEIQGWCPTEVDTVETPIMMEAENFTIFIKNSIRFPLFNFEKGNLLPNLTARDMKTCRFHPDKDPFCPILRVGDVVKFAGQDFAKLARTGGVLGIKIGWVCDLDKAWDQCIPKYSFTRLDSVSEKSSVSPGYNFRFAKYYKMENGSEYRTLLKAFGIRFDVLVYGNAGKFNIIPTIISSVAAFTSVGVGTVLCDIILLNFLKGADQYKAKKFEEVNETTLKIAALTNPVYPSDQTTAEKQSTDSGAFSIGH

[2] = target: T2, hP2X3 (human Purinergic P2X receptors subtype 3), clone B (Homo sapiens, UniProt P56373); test: hP2X3 FLIPR calcium (Fluo-4) antagonist assay, clone B; details: Human P2X3 FLIPR Clone B IC50 (nM), RLE cells expressing hP2X3 clone B (NM_002559); agonist 500 nM α,β-methylene-ATP
T2 sequence (P56373 1-397): T1 sequence (P56373 1-397)
Experimental: The assay used a calcium indicator dye (Fluo-4) that emits fluorescence, the intensity of which is related to the concentration of calcium that entered the cell when P2X3 was activated and the channel opened. Activation of hP2X3 or rat P2X3 and rat P2X2/3 (from the coexpression of rat P2X3 and rat P2×2) is elicited the by P2X3 agonist α,β methylene-ATP (Sigma M6517), and the resulting fluorescence is measured with a FLIPR II™ instrument (Molecular Devices). Compounds are tested for their ability to inhibit the agonist-induced fluorescent signal.
For the rat P2X2/3 HEK-TREX cells, induction of the rat P2X3 expression is used to generate the rat P2X2/3 channels in HEK-TREX cells and performed by addition of 1 μg/mL tetracycline (Invitrogen) 24 h prior to compounds testing to the HEK-TREX expressing the rat P2X2 constitutively. On the day of the experiment, the cells and test compounds are prepared as follows. […] After preparing the compounds, the medium is removed from the cell plates by inversion. A loading solution of 30 μL assay buffer containing 4 μM of the calcium indicator dye FLUO-4 AM (Molecular Probes F14202) is added to each well using a Multidrop (Labsystems). […] The incubation is terminated by washing the cells four times in assay buffer using a Skatron Embla (Molecular Devices), and 25 μL of assay buffer was left in each well. Cell plates are then transferred to the FLIPR. Experiments are initiated by measuring a baseline fluorescence reading for 10 seconds, followed by the addition of 12.5 μL of cpds and data sampling for a total 280 seconds. The experiments are terminated by addition of 12.5 μL of a reference agonist (500 nM α,β-methylene-ATP) or buffer, producing a final assay volume of 50 μL followed by data sampling for an additional 280 seconds.
In P2X3 antagonist experiments (human and rat assays) data are analysed as normalised maximal peak fluorescence monitored following agonist addition and calculated as percent of relative fluorescent counts from control agonist. The dose-response antagonist inhibition curves are analyzed in a 4-parameter sigmoidal fit using a non-linear curve-fitting program (XLfit version 5.0.6, ID Business Solutions Limited, Guildford, UK).

`CC(=O)N1CCN(c2nc3c(c(N(C)C(C)c4ccc5ncccc5c4)n2)CN(C(C)C)C3=O)CC1` (single isomer, unassigned) [Example 260, 2-(4-acetylpiperazin-1-yl)-6-isopropyl-4-(methyl(1-(quinolin-6-yl)ethyl)amino)-5H-pyrrolo[3,4-d]pyrimidin-7(6H)-one] showed an IC50 [1] of 1900 nM and an IC50 [2] of 2300 nM.

In the case of `CCOc1ccc([C@@H](C)Nc2nc(N3CCN(C(C)=O)CC3)nc3c2CN(C(C)C)C3=O)c(OC)c1` [Example 202, (R)-2-(4-acetylpiperazin-1-yl)-4-(1-(4-ethoxy-2-methoxyphenyl)ethylamino)-6-isopropyl-5H-pyrrolo[3,4-d]pyrimidin-7(6H)-one], the IC50 [1] is reported as 47 nM and the IC50 [2] is reported as 51 nM.

Compound `CC(=O)N1CCN(c2nc(N[C@H](C)c3ccc(C#N)cc3)c3c(n2)C(=O)N(C(C)C)C3)CC1` [Example 351, (R)-4-(1-(2-(4-acetylpiperazin-1-yl)-6-isopropyl-7-oxo-6,7-dihydro-5H-pyrrolo[3,4-d]pyrimidin-4-ylamino)ethyl)benzonitrile] has an IC50 [1] of 1940 nM and an IC50 [2] of 3300 nM.

`CC(=O)N1CCN(c2nc3c(c(N4CCCC4c4ccc(Cl)c(Cl)c4)n2)CN(C(C)C)C3=O)CC1` (centres unmarked) [Example 297, 2-(4-acetylpiperazin-1-yl)-4-[2-(3,4-dichlorophenyl)pyrrolidin-1-yl]-6-(1-methylethyl)-5,6-dihydro-7H-pyrrolo[3,4-d]pyrimidin-7-one] showed an IC50 [1] of 322 nM and an IC50 [2] of 300 nM.

In the case of `CC(=O)N1CCN(c2nc(N[C@H](C)c3cc(F)cc(C(F)(F)F)c3)c3c(n2)C(=O)N(C(C)C)C3)CC1` [Example 184, (R)-2-(4-acetylpiperazin-1-yl)-4-(1-(3-fluoro-5-(trifluoromethyl)phenyl)ethylamino)-6-isopropyl-5H-pyrrolo[3,4-d]pyrimidin-7(6H)-one], the IC50 [1] is reported as 101 nM and the IC50 [2] is reported as 87 nM.

In the case of `CC(=O)N1CCN(c2nc3c(c(N4CCCC4c4ccc(C)cc4)n2)CN(C(C)C)C3=O)CC1` (centres unmarked) [Example 296, 2-(4-acetylpiperazin-1-yl)-6-(1-methylethyl)-4-[2-(4-methylphenyl)pyrrolidin-1-yl]-5,6-dihydro-7H-pyrrolo[3,4-d]pyrimidin-7-one], the IC50 [1] is reported as 1190 nM and the IC50 [2] is reported as 1400 nM.

`CC(=O)N1CCN(c2nc(NCc3nc4ccccc4s3)c3c(n2)C(=O)N(C(C)C)C3)CC1` [Example 199, 2-(4-acetylpiperazin-1-yl)-4-(benzo[d]thiazol-2-ylmethylamino)-6-isopropyl-5H-pyrrolo[3,4-d]pyrimidin-7(6H)-one] was tested, and the IC50 [1] was 5050 nM and the IC50 [2] was 2300 nM.

`COCc1ccc(CC2CCCN2c2nc(N3CCN(C(C)=O)CC3)nc3c2CN(C(C)C)C3=O)cc1` (centres unmarked) [Example 293, 2-(4-acetylpiperazin-1-yl)-4-{2-[4-(methoxymethyl)benzyl]pyrrolidin-1-yl}-6-(1-methylethyl)-5,6-dihydro-7H-pyrrolo[3,4-d]pyrimidin-7-one] gave an IC50 [1] of 1590 nM and an IC50 [2] of 1400 nM.

Compound `CC(=O)N1CCN(c2nc(N[C@H](C)c3cc(C(F)(F)F)ccc3F)c3c(n2)C(=O)N(C(C)C)C3)CC1` [Example 183, (R)-2-(4-acetylpiperazin-1-yl)-4-(1-(2-fluoro-5-(trifluoromethyl)phenyl)ethylamino)-6-isopropyl-5H-pyrrolo[3,4-d]pyrimidin-7(6H)-one] has an IC50 [1] of 199 nM and an IC50 [2] of 170 nM.

Compound `CC[C@H](C)N1Cc2c(NCc3cnc4ccccc4c3)nc(N3CCN(C(C)=O)CC3)nc2C1=O` [Example 316, 2-(4-acetylpiperazin-1-yl)-6-[(1S)-1-methylpropyl]-4-[(quinolin-3-ylmethyl)amino]-5,6-dihydro-7H-pyrrolo[3,4-d]pyrimidin-7-one] has an IC50 [1] of 35.5 nM and an IC50 [2] of 28 nM.

`CCOc1ccc([C@@H](C)Nc2nc(N3CCN(C(C)=O)CC3)nc3c2CN([C@@H](C)CC)C3=O)cc1F` [Example 320, 2-(4-acetylpiperazin-1-yl)-4-{[(1R)-1-(4-ethoxy-3-fluorophenyl)ethyl]amino}-6-[(1S)-1-methylpropyl]-5,6-dihydro-7H-pyrrolo[3,4-d]pyrimidin-7-one] was tested, and the IC50 [1] was 69.1 nM and the IC50 [2] was 54 nM.

In the case of `CC(=O)N1CCN(c2nc(NCc3cc4ccccc4c(C)n3)c3c(n2)C(=O)N(C(C)C)C3)CC1` [Example 259, 2-(4-acetylpiperazin-1-yl)-6-isopropyl-4-((1-methylisoquinolin-3-yl)methylamino)-5H-pyrrolo[3,4-d]pyrimidin-7(6H)-one], the IC50 [1] is reported as 27.2 nM and the IC50 [2] is reported as 16 nM.

With `CC(=O)N1CCN(c2nc(N[C@H](C)c3ccc(C(F)(F)F)cc3F)c3c(n2)C(=O)N(C(C)C)C3)CC1` [Example 186, (R)-2-(4-acetylpiperazin-1-yl)-4-(1-(2-fluoro-4-(trifluoromethyl)phenyl)ethylamino)-6-isopropyl-5H-pyrrolo[3,4-d]pyrimidin-7(6H)-one] the IC50 [1] was 138 nM and the IC50 [2] was 100 nM.

Compound `CCOc1ccc([C@@H](C)Nc2nc(N3CCN(C(C)=O)CC3)nc3c2CN(C(C)C)C3=O)c(F)c1` [Example 204, (R)-2-(4-acetylpiperazin-1-yl)-4-(1-(4-ethoxy-2-fluorophenyl)ethylamino)-6-isopropyl-5H-pyrrolo[3,4-d]pyrimidin-7(6H)-one] has an IC50 [1] of 50.4 nM and an IC50 [2] of 38 nM.

`CCC(C)N1Cc2c(nc(N3CCN(C(C)=O)CC3)nc2N(CC)Cc2cc3ccccc3cn2)C1=O` (single isomer, unassigned) [Example 317, 2-(4-acetylpiperazin-1-yl)-4-[ethyl(isoquinolin-3-ylmethyl)amino]-6-(1-methylpropyl)-5,6-dihydro-7H-pyrrolo[3,4-d]pyrimidin-7-one] was tested, and the IC50 [1] was 40 nM and the IC50 [2] was 32 nM.

With `CCOc1ccc([C@H](CO)Nc2nc(N3CCN(C(C)=O)CC3)nc3c2CN(C(C)C)C3=O)cc1` [Example 180, (R)-2-(4-acetylpiperazin-1-yl)-4-(1-(4-ethoxyphenyl)-2-hydroxyethylamino)-6-isopropyl-5H-pyrrolo[3,4-d]pyrimidin-7(6H)-one] the IC50 [1] was 7120 nM and the IC50 [2] was 5800 nM.

Compound `CCOc1ccc([C@@H](C)Nc2nc(N3CCN(C)C(=O)C3)nc3c2CN(C(C)C)C3=O)cc1F` [Example 201, (R)-4-(1-(4-ethoxy-3-fluorophenyl)ethylamino)-6-isopropyl-2-(4-methyl-3-oxopiperazin-1-yl)-5H-pyrrolo[3,4-d]pyrimidin-7(6H)-one] has an IC50 [1] of 723 nM and an IC50 [2] of 410 nM.

`CC(C)N1Cc2c(nc(N3CCN(C)C(=O)C3)nc2N(C)Cc2cc3ccccc3cn2)C1=O` [Example 200, 6-isopropyl-4-((isoquinolin-3-ylmethyl)(methyl)amino)-2-(4-methyl-3-oxopiperazin-1-yl)-5H-pyrrolo[3,4-d]pyrimidin-7(6H)-one] showed an IC50 [1] of 501 nM and an IC50 [2] of 790 nM.

With `CCC(C)N1Cc2c(nc(N3CCN(C(C)=O)CC3)nc2N(CC)Cc2cc3ccccc3cn2)C1=O` (single isomer, unassigned) [Example 318, 2-(4-acetylpiperazin-1-yl)-4-[ethyl(isoquinolin-3-ylmethyl)amino]-6-(1-methylpropyl)-5,6-dihydro-7H-pyrrolo[3,4-d]pyrimidin-7-one] the IC50 [1] was 43 nM and the IC50 [2] was 41 nM.

With `CCN(c1nc(N2CCN(C(C)=O)CC2)nc2c1CN(C(C)C)C2=O)C(C)c1ccc2ncccc2c1` (single isomer, unassigned) [Example 257, 2-(4-acetylpiperazin-1-yl)-4-(ethyl(1-(quinolin-6-yl)ethyl)amino)-6-isopropyl-5H-pyrrolo[3,4-d]pyrimidin-7(6H)-one] the IC50 [1] was 83.2 nM and the IC50 [2] was 80 nM.

`COc1cc(OC(C)C)ccc1[C@@H](C)Nc1nc(N2CCN(C(C)=O)CC2)nc2c1CN(C(C)C)C2=O` [Example 203, (R)-2-(4-acetylpiperazin-1-yl)-4-(1-(4-isopropoxy-2-methoxyphenyl)ethylamino)-6-isopropyl-5H-pyrrolo[3,4-d]pyrimidin-7(6H)-one] was tested, and the IC50 [1] was 65.8 nM and the IC50 [2] was 62 nM.

`CCOc1ccc([C@H](Nc2nc(N3CCN(C(C)=O)CC3)nc3c2CN(C(C)C)C3=O)C2CC2)cc1` [Example 185, (R)-2-(4-acetylpiperazin-1-yl)-4-(cyclopropyl(4-ethoxyphenyl)methylamino)-6-isopropyl-5H-pyrrolo[3,4-d]pyrimidin-7(6H)-one] gave an IC50 [1] of 79.7 nM and an IC50 [2] of 74 nM.

Compound `CC(=O)N1CCN(c2nc(N[C@H](C)c3ccc(F)c(C(F)(F)F)c3)c3c(n2)C(=O)N(C(C)C)C3)CC1` [Example 188, (R)-2-(4-acetylpiperazin-1-yl)-4-(1-(4-fluoro-3-(trifluoromethyl)phenyl)ethylamino)-6-isopropyl-5H-pyrrolo[3,4-d]pyrimidin-7(6H)-one] has an IC50 [1] of 174 nM and an IC50 [2] of 140 nM.

For `CC(=O)N1CCN(c2nc(N[C@H](C)c3ccc(OC4CCC4)cc3)c3c(n2)C(=O)N(C(C)C)C3)CC1` [Example 191, (R)-2-(4-acetylpiperazin-1-yl)-4-(1-(4-cyclobutoxyphenyl)ethylamino)-6-isopropyl-5H-pyrrolo[3,4-d]pyrimidin-7(6H)-one], the IC50 [1] was 81.3 nM and the IC50 [2] was 62 nM.

`CC(=O)N1CCN(c2nc(N[C@H](C)c3ccc(C(F)(F)F)c(F)c3)c3c(n2)C(=O)N(C(C)C)C3)CC1` [Example 182, (R)-2-(4-acetylpiperazin-1-yl)-4-(1-(3-fluoro-4-(trifluoromethyl)phenyl)ethylamino)-6-isopropyl-5H-pyrrolo[3,4-d]pyrimidin-7(6H)-one] gave an IC50 [1] of 271 nM and an IC50 [2] of 240 nM.
